Measured values reported in publication PMC8866981 (Journal of Experimental Pharmacology, 2021).

How the values were obtained:
[1] = tested on: Human T-lymphocytic MT-4 cells; assay: Cytotoxicity test, MTT colorimetric assay; format: cell-based; settings: 5 days, percentage inhibition of cell growth, mean ± S.E.M (n=3)
HIV-1IIIB = format: cell-based, Human immunodeficiency virus type 1; settings: HIV-1IIIB infected MT-4 cells, 5 days, mean ± S.E.M (n=3)

Row | Structure (SMILES) | EmaxC (maximum cytotoxic effect %) [1] [%] | EmaxAV (maximum antiviral effect %, CPE inhibition %) (HIV-1IIIB) [%]
1 | Cc1ccnc2c1NC(=O)c1cccnc1N2C1CC1 [NVP, nevirapine] | > 35 | –
2 | Cc1cn([C@H]2C[C@H](N=[N+]=[N-])[C@@H](CO)O2)c(=O)[nH]c1=O [AZT, zidovudine] | – | 83
